*1 amine or outer side, *2 acyl side, *3 side chain or, on linkers, in order; H or OH if unused. Where a SMILES comes first, the peptide text is derived from it. Bridges are numbered along the chain shown (N, C = ends). Side-chain parts run from the residue outwards. [ ]: non-standard residue; d: D form. The star is where a group is joined. γGlu = O=C(O)[C@H](CCC(=O)[*:2])N[*:1]; Palmitoyl = CCCCCCCCCCCCCCCC(=O)*; Nle = CCCC[C@H](N)C(=O)O; Aib = CC(C)(N)C(=O)O
Key:
human GLP1R = molecular target: T1, human GLP1R (Homo sapiens, UniProt P43220); assay: cAMP activity assay, cells expressing human GLP1R; assay type: cell-based; conditions: cAMP production, 1 hour, table does not say whether with or without 20% human serum, read-out: GLPIR EC50 human
T1 construct: expressed in transfected cells
T1 sequence (P43220 24-463): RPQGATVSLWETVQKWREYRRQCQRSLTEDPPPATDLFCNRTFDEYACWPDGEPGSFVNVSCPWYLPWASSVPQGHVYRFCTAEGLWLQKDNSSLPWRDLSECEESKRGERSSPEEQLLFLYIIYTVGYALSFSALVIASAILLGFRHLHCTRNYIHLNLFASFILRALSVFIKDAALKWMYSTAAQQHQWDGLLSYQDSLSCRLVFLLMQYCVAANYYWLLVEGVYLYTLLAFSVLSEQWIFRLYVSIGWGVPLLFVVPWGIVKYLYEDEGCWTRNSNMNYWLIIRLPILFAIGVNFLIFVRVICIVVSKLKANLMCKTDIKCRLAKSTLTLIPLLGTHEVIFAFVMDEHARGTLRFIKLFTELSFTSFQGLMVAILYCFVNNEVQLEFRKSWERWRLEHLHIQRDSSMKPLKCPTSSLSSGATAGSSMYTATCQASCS
Method: (§1) Activity of the peptides at the Glucagon receptor (GCGR) and GLP-1 receptor (GLP1R) was measured in a cAMP activity assay. Peptides were dissolved in 100% DMSO and serially diluted to generate 10 point titrations. The peptide solutions were then transferred into 384-well assay plates (150 nL/well). Assay ready frozen cells expressing human GLP1R or human GCGR were suspended in growth media consisting of DMEM medium (GIBCO), 10% FBS (GIBCO), 1×NEAA(GIBCO), 1×P/S (GIBCO), 10 ug/ml Blasticidin (GIBCO) and 200 μg/mL Hygromycin (GIBCO). […] The cell suspensions (15 μL) were then added to the assay plates containing the peptide solutions (30,000 cells/well for human GCGR; 10,000 cells/well for human GLP1R). […] Production of cAMP was determined using […] kits (DiscoverX) following manufacturer protocol. The plates were incubated for overnight at room temperature in the dark. Luminescence was measured using an EnVision Multilabel plate reader (Perkin Elmer). Native GLP-1 and Glucagon (Bachem) are used as control peptides.

human GCGR = molecular target: T2, human GCGR (Homo sapiens, UniProt P47871); assay: cAMP activity assay, cells expressing human GCGR; assay type: cell-based; conditions: ratio of human GCGR EC50 to human GLP1R EC50
T2 construct: expressed in transfected cells
T2 sequence (P47871 26-477): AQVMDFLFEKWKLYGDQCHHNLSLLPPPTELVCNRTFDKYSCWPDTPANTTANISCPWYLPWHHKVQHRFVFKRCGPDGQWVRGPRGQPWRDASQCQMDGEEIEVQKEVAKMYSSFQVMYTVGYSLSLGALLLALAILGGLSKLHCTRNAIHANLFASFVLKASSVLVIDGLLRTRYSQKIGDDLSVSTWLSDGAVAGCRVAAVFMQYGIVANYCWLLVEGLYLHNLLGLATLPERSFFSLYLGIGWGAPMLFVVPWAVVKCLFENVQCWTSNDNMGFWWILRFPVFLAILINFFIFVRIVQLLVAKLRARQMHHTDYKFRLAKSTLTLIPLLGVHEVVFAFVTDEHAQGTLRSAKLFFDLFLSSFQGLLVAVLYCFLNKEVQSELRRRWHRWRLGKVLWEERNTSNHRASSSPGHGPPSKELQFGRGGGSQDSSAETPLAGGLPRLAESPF
Method: as §1

| Structure (SMILES) | EC50 (human GLP1R) [nM] | hGCGR/hGLPIR (hTone) (human GCGR) |
| --- | --- | --- |
| CCCCCCCCCCCCCCCC(=O)N[C@@H](CCC(=O)N[C@@H](CCC(=O)NCCCC[C@H](NC(=O)[C@H](CC(=O)O)NC(=O)[C@H](CO)NC(=O)[C@@H](NC(=O)[C@H](Cc1ccccc1)NC(=O)[C@@H](NC(=O)CNC(=O)[C@H](CCC(N)=O)NC(=O)[C@@H](CO)NC(=O)[C@@H](N)Cc1c[nH]cn1)[C@@H](C)O)[C@@H](C)O)C(=O)N[C@@H](CO)C(=O)N[C@@H](CCCCN)C(=O)N[C@@H](Cc1ccc(O)cc1)C(=O)N[C@@H](CC(C)C)C(=O)N[C@@H](CC(=O)O)C(=O)N[C@@H](C)C(=O)N[C@@H](CCCNC(=N)N)C(=O)N[C@@H](C)C(=O)N[C@@H](C)C(=O)N[C@H]1CCCCNC(=O)CC[C@@H](C(=O)N[C@@H](Cc2c[nH]c3ccccc23)C(=O)N[C@@H](CC(C)C)C(=O)N[C@@H](CC(C)C)C(=O)N[C@@H](CC(=O)O)C(=O)N[C@H](C(N)=O)[C@@H](C)O)NC(=O)[C@H](C(C)C)NC(=O)[C@H](Cc2ccccc2)NC(=O)[C@H](CC(=O)O)NC1=O)C(=O)O)C(=O)O [SEQ ID NO: 11] | 0.17 | 0.6 |
| CCCCCCCCCCCCCCCC(=O)N[C@@H](CCC(=O)N[C@@H](CCC(=O)NCCCC[C@H](NC(=O)[C@H](CC(=O)O)NC(=O)[C@H](CO)NC(=O)[C@@H](NC(=O)[C@H](Cc1ccccc1)NC(=O)[C@@H](NC(=O)CNC(=O)[C@H](CCC(N)=O)NC(=O)C(C)(C)NC(=O)[C@@H](N)Cc1c[nH]cn1)[C@@H](C)O)[C@@H](C)O)C(=O)N[C@@H](CO)C(=O)N[C@@H](CCCCN)C(=O)N[C@@H](Cc1ccc(O)cc1)C(=O)N[C@@H](CC(C)C)C(=O)N[C@@H](CC(=O)O)C(=O)NC(C)(C)C(=O)N[C@H]1CCCCNC(=O)CC[C@@H](C(=O)N[C@@H](Cc2ccccc2)C(=O)N[C@H](C(=O)N[C@@H](CCC(N)=O)C(=O)N[C@@H](Cc2c[nH]c3ccccc23)C(=O)N[C@@H](CC(C)C)C(=O)N[C@@H](CCCC)C(=O)N[C@@H](CC(=O)O)C(=O)N[C@H](C(N)=O)[C@@H](C)O)C(C)C)NC(=O)[C@H](CCC(N)=O)NC(=O)[C@H](C)NC(=O)[C@H](C)NC1=O)C(=O)O)C(=O)O [SEQ ID NO: 16] (H-H[Aib]QGTFTSDK([γGlu-γGlu-Palmitoyl])SKYLD[Aib]KAAQEFVQWL[Nle]DT-NH2; lactam 17-21; N-terminus assumed) | 0.17 | 1.25 |
| CCCCCCCCCCCCCCCC(=O)N[C@@H](CCC(=O)N[C@@H](CCC(=O)NCCCC[C@H](NC(=O)[C@H](CC(=O)O)NC(=O)[C@H](CO)NC(=O)[C@@H](NC(=O)[C@H](Cc1ccccc1)NC(=O)[C@@H](NC(=O)CNC(=O)[C@H](CCC(N)=O)NC(=O)[C@@H](CO)NC(=O)[C@@H](N)Cc1c[nH]cn1)[C@@H](C)O)[C@@H](C)O)C(=O)N[C@@H](CO)C(=O)N[C@@H](CCCCN)C(=O)N[C@@H](Cc1ccc(O)cc1)C(=O)N[C@@H](CC(C)C)C(=O)N[C@@H](CC(=O)O)C(=O)N[C@@H](CCC(=O)O)C(=O)N[C@@H](CCCNC(=N)N)C(=O)N[C@@H](C)C(=O)N[C@@H](C)C(=O)N[C@H]1CCC(=O)NCCCC[C@@H](C(=O)N[C@@H](Cc2c[nH]c3ccccc23)C(=O)N[C@@H](CC(C)C)C(=O)N[C@@H](CC(C)C)C(=O)N[C@@H](CC(=O)O)C(=O)N[C@H](C(N)=O)[C@@H](C)O)NC(=O)[C@H](C(C)C)NC(=O)[C@H](Cc2ccccc2)NC(=O)[C@H](CC(=O)O)NC1=O)C(=O)O)C(=O)O [SEQ ID NO: 7] (H-H[dS]QGTFTSDK([γGlu-γGlu-Palmitoyl])SKYLDERAAEDFVKWLLDT-NH2; lactam 20-24; N-terminus assumed) | – | 1.05 |
